Test results taken from patent US7811997B2, “Composition containing total triterpenoid sapogenins extracted from bamboo, and the preparation method and use thereof” (priority 2002, dated 2010).
Like-named read-outs stand apart in the source and are kept apart here.

Key:
Format in all cases: cell-based
[1] = system: THP-1 (human macrophage tumor); assay: MTT proliferation inhibition, THP-1 cells; details: THP-1 cell; for inhibition at 7.5 µM: 7.5 μmol/L; for inhibition at 7.5 µM / inhibition at 15 µM / inhibition at 30 µM / inhibition at 60 µM / inhibition at 120 µM / inhibition at 240 µM / inhibition at 480 µM / inhibition at 960 µM: read-out: Inhibitory rate (%); for inhibition at 15 µM: 15 μmol/L; for inhibition at 30 µM: 30 μmol/L; for inhibition at 60 µM: 60 μmol/L; for inhibition at 120 µM: 120 μmol/L; for inhibition at 240 µM: 240 μmol/L; for inhibition at 480 µM: 480 μmol/L; for inhibition at 960 µM: 960 μmol/L; for IC50: MTT, Bliss method
Source text: (§1) The Silica Gel Column Chromatography and Countercurrent Chromatography preparation techniques were used to obtain Friedelin monomer extracted from EZR2002 for the sake of evaluating its anti-tumor activity further. The purity of this monomer determined by GC-MS analysis was 90.5%.
(§2) A375 (human malanoma), L929 (mouse lung epithelial tumor), Hela (human cervical tumor) and THP-1 (human macrophage tumor) cell lines were used for active filtration test in this experiment. Among these cell lines, A375, L929 and Hela were adherent cells while THP-1 was a kind of suspended cell.
(§3) All cells were maintained in the RPMI-1640 culture medium supplemented with 10% fetal calf serum, penicillin (100 U/mL), streptomycin (100 μg/mL) and 0.2% NaHCO3. These supplements were dissolved in deionized water and 0.22 μm filtration membrane was used for filter sterilization. The fetal calf serum was inactivated 30 min at 56° C. prior to an experiment. Cells were cultured in a humidified incubator of 5% CO2 at 37° C.
(§4) A375, L929 and Hela cells in logarithmic growth phases were seeded at a cell density of approximately 5×10^4 cells/mL in 96 pore plates (100 μL/well). Furthermore, THP-1 cell was seeded at a cell density of approximately 1×10^5 cells/mL because it was smaller than others. Samples were added in suspended cells after culturing 4 h and in adherent cells after culturing 12 h. Friedelin was dissolved in DMSO in advance and then in the culture medium with the ultrasonic treatment, where the final concentration of the solvent in the culture medium was <0.1% (v/v). Sample was added for 7.5, 15, 30, 60, 120, 240, 480 and 960 μmol/L. Each level had four parallel pores and a negative control. The cells were incubated for 24 and 48 h and then 15 μL/well MTT solvent (5 mg/mL) was added.
(§5) The cells were incubated for 48 h, followed by centrifugation at 1500 rpm for 5 min. The supernatant was removed and 150 μL/well DMSO was added, followed by micro-vibrator shocking for 10 min and crystal dissolving completely. The absorbance (OD value) was measured by enzyme-labeled meter at 492 nm. Furthermore, the inhibitory rate of cell proliferation and the IC50 value of friedelin were counted by using Bliss method.

[2] = system: Hela (human cervical tumor); assay: MTT proliferation inhibition, Hela cells; details: Hela cell; for Inhibitory rate (%) / inhibition at 120 µM: 120 μmol/L; for inhibition at 7.5 µM / inhibition at 15 µM / inhibition at 30 µM / inhibition at 60 µM / inhibition at 120 µM / inhibition at 240 µM / inhibition at 480 µM / inhibition at 960 µM / IC50: Homo sapiens; for inhibition at 7.5 µM / inhibition at 15 µM / inhibition at 30 µM / inhibition at 60 µM / inhibition at 120 µM / inhibition at 240 µM / inhibition at 480 µM / inhibition at 960 µM: HeLa, read-out: Inhibitory rate (%); for inhibition at 7.5 µM: 7.5 μmol/L; for inhibition at 15 µM: 15 μmol/L; for inhibition at 30 µM: 30 μmol/L; for inhibition at 60 µM: 60 μmol/L; for inhibition at 240 µM: 240 μmol/L; for inhibition at 480 µM: 480 μmol/L; for inhibition at 960 µM: 960 μmol/L; for IC50: MTT, Bliss method
Source text: as §1, §2, §3, §4, §5
(§6) The de-methyl-cantharidin was taken as the positive control and the inhibitory rate of A375, L929 and Hela cells were measured by adding de-methyl-cantharidin (120 μmol/L) for 24 and 48 h (Table 8). Furthermore, the corresponding data of Friedelin were counted.

A375 (human malanoma) = assay: MTT proliferation inhibition, A375 cells; details: A375 cell; for inhibition at 7.5 µM / inhibition at 15 µM / inhibition at 30 µM / inhibition at 60 µM / inhibition at 120 µM / inhibition at 240 µM / inhibition at 480 µM / inhibition at 960 µM / IC50: Homo sapiens; for inhibition at 7.5 µM: 7.5 μmol/L; for inhibition at 7.5 µM / inhibition at 15 µM / inhibition at 30 µM / inhibition at 60 µM / inhibition at 120 µM / inhibition at 240 µM / inhibition at 480 µM / inhibition at 960 µM: read-out: Inhibitory rate (%); for inhibition at 15 µM: 15 μmol/L; for inhibition at 30 µM: 30 μmol/L; for inhibition at 60 µM: 60 μmol/L; for inhibition at 240 µM: 240 μmol/L; for inhibition at 480 µM: 480 μmol/L; for inhibition at 960 µM: 960 μmol/L; for IC50: A-375, MTT, Bliss method
Source text: as §1, §2, §3, §4, §5, §6

[3] = system: L929 (mouse lung epithelial tumor); assay: MTT proliferation inhibition, L929 cells; details: L929 cell; for Inhibitory rate (%) / inhibition at 120 µM: 120 μmol/L; for inhibition at 7.5 µM / inhibition at 15 µM / inhibition at 30 µM / inhibition at 60 µM / inhibition at 120 µM / inhibition at 240 µM / inhibition at 480 µM / inhibition at 960 µM / IC50: Mus musculus; for inhibition at 7.5 µM: 7.5 μmol/L; for inhibition at 7.5 µM / inhibition at 15 µM / inhibition at 30 µM / inhibition at 60 µM / inhibition at 120 µM / inhibition at 240 µM / inhibition at 480 µM / inhibition at 960 µM: read-out: Inhibitory rate (%); for inhibition at 15 µM: 15 μmol/L; for inhibition at 30 µM: 30 μmol/L; for inhibition at 60 µM: 60 μmol/L; for inhibition at 240 µM: 240 μmol/L; for inhibition at 480 µM: 480 μmol/L; for inhibition at 960 µM: 960 μmol/L; for IC50: MTT, Bliss method
Source text: as §1, §2, §3, §4, §5, §6

IC50 ([1]; 24 h): 85.1 µM
IC50 ([1]; 48 h): 58 µM
IC50 ([2]; 24 h): 61.2 µM
IC50 ([2]; 48 h): 64.7 µM
IC50 (A375 (human malanoma); 24 h): 357 µM
IC50 (A375 (human malanoma); 48 h): 61.5 µM
SMILES: C[C@H]1C(=O)CC[C@@H]2[C@]1(C)CC[C@H]1[C@@]2(C)CC[C@@]2(C)[C@@H]3CC(C)(C)CC[C@]3(C)CC[C@]12C [Friedelin, friedelin]
inhibition at 7.5 µM ([1]; 24 h): 4.89%
inhibition at 15 µM ([1]; 24 h): 0%
inhibition at 30 µM ([1]; 24 h): 3.04%
inhibition at 60 µM ([1]; 24 h): 45.2%
inhibition at 120 µM ([1]; 24 h): 58.8%
inhibition at 240 µM ([1]; 24 h): 68.5%
inhibition at 480 µM ([1]; 24 h): 74.1%
inhibition at 960 µM ([1]; 24 h): 70.8%
inhibition at 7.5 µM ([1]; 48 h): 8.6%
inhibition at 15 µM ([1]; 48 h): 0%
inhibition at 30 µM ([1]; 48 h): 7.57%
inhibition at 60 µM ([1]; 48 h): 52.6%
inhibition at 120 µM ([1]; 48 h): 77.3%
inhibition at 240 µM ([1]; 48 h): 95%
inhibition at 480 µM ([1]; 48 h): 92.9%
inhibition at 960 µM ([1]; 48 h): 82.5%
Inhibitory rate (%) ([2]; 24 h): 71.6%
Inhibitory rate (%) ([2]; 48 h): 86.0%
inhibition at 7.5 µM ([2]; 24 h, 24 h): 35%
inhibition at 15 µM ([2]; 24 h, 24 h): 34.7%
inhibition at 30 µM ([2]; 24 h, 24 h): 33.3%
inhibition at 60 µM ([2]; 24 h, 24 h): 43.4%
inhibition at 120 µM ([2]; 24 h, 24 h): 71.6%
inhibition at 240 µM ([2]; 24 h, 24 h): 88.2%
inhibition at 480 µM ([2]; 24 h, 24 h): 88.1%
inhibition at 960 µM ([2]; 24 h, 24 h): 73.8%
inhibition at 7.5 µM ([2]; 48 h, 48 h): 20%
inhibition at 15 µM ([2]; 48 h, 48 h): 17.2%
inhibition at 30 µM ([2]; 48 h, 48 h): 24.6%
inhibition at 60 µM ([2]; 48 h, 48 h): 41.4%
inhibition at 120 µM ([2]; 48 h, 48 h): 86%
inhibition at 240 µM ([2]; 48 h, 48 h): 99.5%
inhibition at 480 µM ([2]; 48 h, 48 h): 98%
inhibition at 960 µM ([2]; 48 h, 48 h): 92%
Inhibitory rate (%) (A375 (human malanoma); 48 h, 120 μmol/L): 88.6%
inhibition at 7.5 µM (A375 (human malanoma); A-375, 24 h, 24 h): 0%
inhibition at 15 µM (A375 (human malanoma); A-375, 24 h, 24 h): 6.43%
inhibition at 30 µM (A375 (human malanoma); A-375, 24 h, 24 h): 0.43%
inhibition at 60 µM (A375 (human malanoma); A-375, 24 h, 24 h): 14.1%
inhibition at 120 µM (A375 (human malanoma); A-375, 24 h, 24 h, 120 μmol/L): 36.7%
inhibition at 240 µM (A375 (human malanoma); A-375, 24 h, 24 h): 44.8%
inhibition at 480 µM (A375 (human malanoma); A-375, 24 h, 24 h): 63.3%
inhibition at 960 µM (A375 (human malanoma); A-375, 24 h, 24 h): 60.4%
inhibition at 7.5 µM (A375 (human malanoma); A-375, 48 h, 48 h): 0.51%
inhibition at 15 µM (A375 (human malanoma); A-375, 48 h, 48 h): 6.29%
inhibition at 30 µM (A375 (human malanoma); A-375, 48 h, 48 h): 17.2%
inhibition at 60 µM (A375 (human malanoma); A-375, 48 h, 48 h): 44.4%
inhibition at 120 µM (A375 (human malanoma); A-375, 48 h, 48 h, 120 μmol/L): 88.6%
inhibition at 240 µM (A375 (human malanoma); A-375, 48 h, 48 h): 100%
inhibition at 480 µM (A375 (human malanoma); A-375, 48 h, 48 h): 96.1%
inhibition at 960 µM (A375 (human malanoma); A-375, 48 h, 48 h): 89.8%
Inhibitory rate (%) ([3]; 24 h): 37.6%
Inhibitory rate (%) ([3]; 48 h): 81.1%
inhibition at 7.5 µM ([3]; L929, 24 h, 24 h): 5.42%
inhibition at 15 µM ([3]; L929, 24 h, 24 h): 10.4%
inhibition at 30 µM ([3]; L929, 24 h, 24 h): 13.2%
inhibition at 60 µM ([3]; L929, 24 h, 24 h): 22.7%
inhibition at 120 µM ([3]; L929, 24 h, 24 h): 37.6%
inhibition at 240 µM ([3]; L929, 24 h, 24 h): 52.3%
inhibition at 480 µM ([3]; L929, 24 h, 24 h): 48.1%
inhibition at 960 µM ([3]; L929, 24 h, 24 h): 38.9%
inhibition at 7.5 µM ([3]; L929, 48 h, 48 h): 17.3%
inhibition at 15 µM ([3]; L929, 48 h, 48 h): 21.6%
inhibition at 30 µM ([3]; L929, 48 h, 48 h): 38.8%
inhibition at 60 µM ([3]; L929, 48 h, 48 h): 66.8%
inhibition at 120 µM ([3]; L929, 48 h, 48 h): 81.1%
inhibition at 240 µM ([3]; L929, 48 h, 48 h): 99.5%
inhibition at 480 µM ([3]; L929, 48 h, 48 h): 98.2%
inhibition at 960 µM ([3]; L929, 48 h, 48 h): 89.9%
IC50 ([3]; 24 h): 665 µM
IC50 ([3]; 48 h): 36.9 µM
